In patent US7045624B2, “Compounds and their uses” (Conopco, Inc., priority 2002, dated 2006):

Columns and labels:
[1] = tested on: Neurons from trigeminal ganglia of Wistar rats; experiment: Ca2+ response of cultured trigeminal neurons to test compounds (Fura-2 fluorescence); assay type: cell-based; conditions: 100 μM final test concentration; cellular Ca2+ levels, cultured rat trigeminal neurons; relative to compound 1 (icilin)
Protocol: The efficacy of different compounds according to the invention was tested in vitro, by exposing cultured neurons to the compounds and monitoring the cellular Ca^2+ levels.
The compounds were dissolved in DMSO by ultrasonication to a 0.1 M solution. 5 μl of this stock was added to 5 mg of cyclodextrin and 5 ml of 140 Na-tyrode, to achieve a 100 μM final test concentration.
Neurons from trigeminal ganglia of Wistar rats were prepared as described in U.S. Pat. No. 5,811,256. After 24 hours of cultivation, the responsiveness of the neurons to different compounds was measured according to the general procedure described by McKemy et al (Nature, Vol. 416, 2002, 52–58). The test protocol described by McKemy was modified slightly, by using the fluorescent Ca^2+ indicator Fura-2. Detection of the cellular fluorescence signals was performed by videomicroscopical analysis. The neurons were given a cold stimulus by a thermocoupling device and were subsequently tested for responsiveness to the test compounds by superfusion with solutions containing the test compounds while continuously monitoring the cellular Ca^2+ levels.
The results were recorded for compounds 1 to 3 and menthol, and are expressed below, as a percentage compared to the activity for compound 1 (icilin).

[2] = Cooling effect of synthesised compounds (test not described); conditions: ability to elicit a cooling sensation; no test details given
[3] = tested on: mucous membranes (nostrils, lips and eyelids) of the researchers; conditions: in contact with mucous membranes (nostrils, lips and eyelids), also when ingested; cited from earlier work

In the case of `O=C1NC(c2cccc(Cl)c2)=CCN1c1ccccc1O` [Compound 3, 1-(2′-hydroxyphenyl)-4-(3″-chlorophenyl)-1,2,3,6-tetrahydro-pyrimidine-2-one], the “Activity (% relative to Compound 1)” value [1] is reported as 35%.
With `O=C1NC(c2cccc([N+](=O)[O-])c2)=CCN1c1ccccc1` [1-phenyl-4-(3″-nitrophenyl)-1,2,3,6-tetrahydropyrimidine-2-one] the cooling effect [2] was “good cooling effects”.
With `CC1CCC(C(C)C)C(O)C1` (centres unmarked) [Menthol, 2-isopropyl-5-methyl-cyclohexanol] the “Activity (% relative to Compound 1)” value [1] was 42%.
For `O=C1NC(c2ccccc2)=CCN1c1ccccc1O` [1-(2′-hydroxyphenyl)-4-phenyl-1,2,3,6-tetrahydropyrimidine-2-one], the cooling effect [2] was “good cooling effects”.
For `COc1cccc(C2=CCN(c3ccccc3O)C(=O)N2)c1` [1-(2′-hydroxyphenyl)-4-(3″-methoxyphenyl)-1,2,3,6-tetrahydropyrimidine-2-one], the cooling effect [2] was “good cooling effects”.
With `O=C1NC(c2cccc([N+](=O)[O-])c2)=CCN1c1ccccc1C(F)(F)F` [1-(2′-trifluoromethylphenyl)-4-(3″-nitrophenyl)-1,2,3,6-tetrahydropyrimidine-2-one] the cooling effect [2] was “good cooling effects”.
In the case of `O=C1NC(c2ccccc2[N+](=O)[O-])=CCN1c1ccccc1O` [Compound 1, 1-[2-hydroxyphenyl]-4-[2-nitrophenyl]-1,2,3,6-tetrahydropyrimidine-2-one], the “Activity (% relative to Compound 1)” value [1] is listed as 100% and the sensations of coldness [3] is listed as “produced sensations of coldness”.
